# ChEMBL document CHEMBL5360657, “Discovery of the TLR7/8 Antagonist MHV370 for Treatment of Systemic Autoimmune Diseases” (ACS Med Chem Lett, 2023)
# pIC50: −log10 of the molar value.
# Experiments:
# Toll-like receptor 7 = biological target: T1, Toll-like receptor 7 (Homo sapiens, UniProt Q9NYK1); assay: Antagonist activity at TLR7 in human PBMC cells assessed as reduction in IFN alpha measured after 20 hrs by AlphaLISA assay; format: cell-based
# T1 sequence (Q9NYK1 whole entry): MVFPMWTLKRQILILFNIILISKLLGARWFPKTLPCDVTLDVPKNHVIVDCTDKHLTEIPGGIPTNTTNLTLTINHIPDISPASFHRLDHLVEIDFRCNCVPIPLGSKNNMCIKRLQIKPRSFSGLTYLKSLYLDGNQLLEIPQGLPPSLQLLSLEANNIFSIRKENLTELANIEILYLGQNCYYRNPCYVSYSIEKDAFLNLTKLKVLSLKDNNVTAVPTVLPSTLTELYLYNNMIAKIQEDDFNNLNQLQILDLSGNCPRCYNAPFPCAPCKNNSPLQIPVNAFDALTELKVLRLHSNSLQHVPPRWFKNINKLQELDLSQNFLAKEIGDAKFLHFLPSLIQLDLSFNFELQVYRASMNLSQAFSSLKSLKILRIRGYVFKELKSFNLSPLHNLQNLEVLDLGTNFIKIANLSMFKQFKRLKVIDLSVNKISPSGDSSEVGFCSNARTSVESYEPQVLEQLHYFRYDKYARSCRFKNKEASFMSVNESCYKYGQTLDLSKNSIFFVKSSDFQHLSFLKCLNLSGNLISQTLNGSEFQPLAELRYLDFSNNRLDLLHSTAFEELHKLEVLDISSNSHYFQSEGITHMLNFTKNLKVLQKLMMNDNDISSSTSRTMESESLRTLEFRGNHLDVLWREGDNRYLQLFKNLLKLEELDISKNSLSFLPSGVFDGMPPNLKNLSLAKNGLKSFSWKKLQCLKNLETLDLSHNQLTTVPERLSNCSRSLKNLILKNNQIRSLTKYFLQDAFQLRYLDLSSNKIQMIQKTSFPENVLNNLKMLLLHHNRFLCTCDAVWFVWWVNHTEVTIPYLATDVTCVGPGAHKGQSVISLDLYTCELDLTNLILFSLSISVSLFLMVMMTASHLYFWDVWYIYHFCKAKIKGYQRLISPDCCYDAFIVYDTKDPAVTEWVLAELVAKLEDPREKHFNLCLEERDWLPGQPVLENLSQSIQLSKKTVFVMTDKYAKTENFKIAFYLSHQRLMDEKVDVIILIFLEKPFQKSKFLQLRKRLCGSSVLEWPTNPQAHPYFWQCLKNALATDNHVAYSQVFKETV
# Toll-like receptor 8 = biological target: T2, Toll-like receptor 8 (Homo sapiens, UniProt Q9NR97); assay: Antagonist activity at TLR8 in human PBMC cells […] assessed as reduction in IL-6 level measured after 20 hrs by AlphaLISA assay; format: cell-based
# T2 sequence (Q9NR97 whole entry): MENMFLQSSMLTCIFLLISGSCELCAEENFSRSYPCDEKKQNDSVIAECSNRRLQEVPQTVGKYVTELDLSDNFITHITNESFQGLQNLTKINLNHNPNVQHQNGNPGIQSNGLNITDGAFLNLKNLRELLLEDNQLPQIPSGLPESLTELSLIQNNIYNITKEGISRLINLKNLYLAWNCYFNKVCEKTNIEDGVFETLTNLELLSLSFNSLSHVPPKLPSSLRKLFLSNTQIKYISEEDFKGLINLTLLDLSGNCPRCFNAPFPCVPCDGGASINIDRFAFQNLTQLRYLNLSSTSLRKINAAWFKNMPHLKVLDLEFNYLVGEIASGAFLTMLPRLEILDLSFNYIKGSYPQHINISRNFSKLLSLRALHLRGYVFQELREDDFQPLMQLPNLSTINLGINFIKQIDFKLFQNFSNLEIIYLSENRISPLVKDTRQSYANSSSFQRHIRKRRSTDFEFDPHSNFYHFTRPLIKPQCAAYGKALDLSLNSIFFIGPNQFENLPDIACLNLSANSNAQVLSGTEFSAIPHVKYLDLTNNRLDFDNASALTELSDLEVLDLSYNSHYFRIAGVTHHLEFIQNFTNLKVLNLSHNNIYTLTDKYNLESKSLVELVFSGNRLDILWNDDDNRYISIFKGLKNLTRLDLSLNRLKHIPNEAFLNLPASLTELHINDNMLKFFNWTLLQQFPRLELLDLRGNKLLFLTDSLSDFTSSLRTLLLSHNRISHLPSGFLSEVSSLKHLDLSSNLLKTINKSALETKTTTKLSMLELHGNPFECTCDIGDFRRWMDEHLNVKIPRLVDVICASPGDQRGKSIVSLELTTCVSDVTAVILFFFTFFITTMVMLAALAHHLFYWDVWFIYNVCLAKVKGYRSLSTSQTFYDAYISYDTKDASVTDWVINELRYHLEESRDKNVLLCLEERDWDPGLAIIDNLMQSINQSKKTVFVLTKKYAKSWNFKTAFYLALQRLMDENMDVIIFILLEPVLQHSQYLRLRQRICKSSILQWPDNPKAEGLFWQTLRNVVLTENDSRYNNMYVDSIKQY
# Toll-like receptor 9 = biological target: T3, Toll-like receptor 9 (Homo sapiens, UniProt Q9NR96); assay: Antagonist activity at TLR9 in human PBMC cells assessed as reduction in IFN alpha measured after 20 hrs by AlphaLISA assay; format: cell-based
# T3 sequence (Q9NR96 whole entry): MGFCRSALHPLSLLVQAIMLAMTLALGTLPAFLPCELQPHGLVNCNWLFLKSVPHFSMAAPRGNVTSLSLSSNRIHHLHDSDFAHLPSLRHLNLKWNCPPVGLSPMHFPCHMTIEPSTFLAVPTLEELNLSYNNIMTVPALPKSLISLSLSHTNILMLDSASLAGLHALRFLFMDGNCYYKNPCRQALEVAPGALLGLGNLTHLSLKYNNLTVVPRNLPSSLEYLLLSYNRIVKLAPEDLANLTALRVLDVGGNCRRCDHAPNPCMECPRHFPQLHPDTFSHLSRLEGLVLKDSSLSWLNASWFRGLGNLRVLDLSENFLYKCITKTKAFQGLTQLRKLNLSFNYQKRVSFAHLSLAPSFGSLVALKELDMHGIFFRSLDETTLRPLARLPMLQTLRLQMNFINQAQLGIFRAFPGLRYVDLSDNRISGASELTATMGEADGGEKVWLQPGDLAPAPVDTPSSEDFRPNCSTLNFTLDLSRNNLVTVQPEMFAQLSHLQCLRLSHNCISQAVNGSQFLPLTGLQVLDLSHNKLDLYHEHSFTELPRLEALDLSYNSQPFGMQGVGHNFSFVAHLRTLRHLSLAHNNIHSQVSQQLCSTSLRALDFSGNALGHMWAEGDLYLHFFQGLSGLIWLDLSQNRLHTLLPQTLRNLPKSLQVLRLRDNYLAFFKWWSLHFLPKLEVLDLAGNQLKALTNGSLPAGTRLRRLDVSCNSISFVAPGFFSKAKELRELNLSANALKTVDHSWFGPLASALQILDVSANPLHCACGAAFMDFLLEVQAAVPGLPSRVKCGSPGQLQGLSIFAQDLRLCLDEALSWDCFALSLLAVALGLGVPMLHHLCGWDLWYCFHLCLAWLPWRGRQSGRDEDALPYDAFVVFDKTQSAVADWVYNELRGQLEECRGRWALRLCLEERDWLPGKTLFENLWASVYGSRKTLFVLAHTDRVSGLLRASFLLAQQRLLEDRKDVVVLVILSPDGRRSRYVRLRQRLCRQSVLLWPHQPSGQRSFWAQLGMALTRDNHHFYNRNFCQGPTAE
# [1] = Permeability of the compound by PAMPA; format: ADME
# [2] = biological target: Voltage-gated inwardly rectifying potassium channel KCNH2 (Homo sapiens, UniProt Q12809); assay: Displacement of [3H]-dofetilite from human ERG (unknown origin); format: toxicity
# Cytochrome P450 3A4 [3] = biological target: T4, Cytochrome P450 3A4 (Homo sapiens, UniProt P08684); assay: Inhibition of CYP3A4 (unknown origin); format: ADME
# Cytochrome P450 3A4 [4] = biological target: T4, Cytochrome P450 3A4; assay: Time dependent inhibition of CYP3A4 (unknown origin) assessed as Kobs; format: ADME; note: test concentration or dose not given here
# [5] = Metabolic stability in human liver microsomes assessed as intrinsic clearance; format: ADME, Microsome; details: read-out: CLH
# [6] = Metabolic stability in mouse liver microsomes assessed as intrinsic clearance; format: ADME, Microsome; details: read-out: CLH
# [7] = Metabolic stability in rat liver microsomes assessed as intrinsic clearance; format: ADME, Microsome; details: read-out: CLH
# T4 sequence (P08684 whole entry): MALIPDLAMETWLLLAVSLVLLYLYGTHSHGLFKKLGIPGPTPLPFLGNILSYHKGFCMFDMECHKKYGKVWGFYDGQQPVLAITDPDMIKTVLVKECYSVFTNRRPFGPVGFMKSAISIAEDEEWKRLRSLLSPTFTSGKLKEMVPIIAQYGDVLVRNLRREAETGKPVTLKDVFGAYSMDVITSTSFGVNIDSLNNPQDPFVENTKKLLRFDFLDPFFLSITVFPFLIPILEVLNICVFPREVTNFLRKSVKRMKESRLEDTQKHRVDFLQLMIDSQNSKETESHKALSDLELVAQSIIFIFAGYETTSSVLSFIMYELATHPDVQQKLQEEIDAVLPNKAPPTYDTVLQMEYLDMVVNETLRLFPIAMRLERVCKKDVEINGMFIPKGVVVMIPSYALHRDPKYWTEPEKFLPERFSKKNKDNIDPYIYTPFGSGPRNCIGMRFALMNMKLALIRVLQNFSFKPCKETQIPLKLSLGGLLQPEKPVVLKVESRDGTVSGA
# Chain of Voltage-gated inwardly rectifying potassium channel KCNH2 (Q12809 whole entry): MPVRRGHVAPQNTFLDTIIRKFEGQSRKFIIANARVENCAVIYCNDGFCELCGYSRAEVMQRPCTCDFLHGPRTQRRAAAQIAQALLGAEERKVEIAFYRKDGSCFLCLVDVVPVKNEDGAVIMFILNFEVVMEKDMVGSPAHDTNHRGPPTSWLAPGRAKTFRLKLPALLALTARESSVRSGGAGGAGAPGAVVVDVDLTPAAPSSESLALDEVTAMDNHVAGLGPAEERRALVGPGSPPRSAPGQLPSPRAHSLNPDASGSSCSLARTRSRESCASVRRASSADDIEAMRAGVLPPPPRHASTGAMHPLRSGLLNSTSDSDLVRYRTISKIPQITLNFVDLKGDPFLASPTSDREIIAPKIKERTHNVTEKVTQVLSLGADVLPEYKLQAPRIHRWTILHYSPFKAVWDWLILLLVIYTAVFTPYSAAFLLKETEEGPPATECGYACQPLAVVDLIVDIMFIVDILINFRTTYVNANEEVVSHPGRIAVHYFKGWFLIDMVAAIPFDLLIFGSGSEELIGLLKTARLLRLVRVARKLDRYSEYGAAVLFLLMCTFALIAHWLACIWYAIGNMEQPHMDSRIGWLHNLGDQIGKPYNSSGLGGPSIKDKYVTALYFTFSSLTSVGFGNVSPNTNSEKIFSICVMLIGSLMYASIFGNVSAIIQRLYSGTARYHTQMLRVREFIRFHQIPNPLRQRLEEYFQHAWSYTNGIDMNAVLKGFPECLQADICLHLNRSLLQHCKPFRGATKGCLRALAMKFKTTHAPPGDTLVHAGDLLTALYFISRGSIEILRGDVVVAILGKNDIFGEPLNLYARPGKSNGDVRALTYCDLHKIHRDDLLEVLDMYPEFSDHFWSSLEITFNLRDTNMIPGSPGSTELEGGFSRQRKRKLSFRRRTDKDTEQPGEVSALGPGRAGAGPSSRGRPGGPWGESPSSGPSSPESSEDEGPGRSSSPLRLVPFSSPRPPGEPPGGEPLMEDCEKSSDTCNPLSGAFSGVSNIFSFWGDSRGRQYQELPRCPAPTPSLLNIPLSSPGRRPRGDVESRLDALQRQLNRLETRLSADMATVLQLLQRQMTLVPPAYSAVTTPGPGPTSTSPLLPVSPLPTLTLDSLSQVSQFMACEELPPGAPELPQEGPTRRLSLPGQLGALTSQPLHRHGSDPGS
smiles,measurement,setting,value
Cc1cc(N2CCc3c(c(C)nn3CC34CCC(N5CCN(C)C(=O)C5)(CC3)CC4)C2)c2cnn(C)c2n1,pIC50,Toll-like receptor 7,7.25
same,pIC50,Toll-like receptor 8,6.40
same,pIC50,Toll-like receptor 9,< 5.14
same,log(permeability),[1],-5
same,pIC50,[2],< 4.52
same,pIC50,Cytochrome P450 3A4 [3],< 4.30
same,Kobs,Cytochrome P450 3A4 [4],0.015 min⁻¹
same,microsomal CLint,[5],39 µL/min/mg
same,microsomal CLint,[6],103 µL/min/mg
same,microsomal CLint,[7],87 µL/min/mg
Cc1cc(N2CCc3c(c(C)nn3CC34CCC(N5CCC5)(CC3)CC4)C2)c2cnn(C)c2n1,pIC50,Toll-like receptor 7,8.30
same,pIC50,Toll-like receptor 8,6.92
same,pIC50,Toll-like receptor 9,6.28
same,log(permeability),[1],-4.7
same,pIC50,[2],< 4.52
same,pIC50,Cytochrome P450 3A4 [3],< 4.30
same,Kobs,Cytochrome P450 3A4 [4],0.015 min⁻¹
same,microsomal CLint,[5],96 µL/min/mg
same,microsomal CLint,[6],65 µL/min/mg
same,microsomal CLint,[7],30 µL/min/mg
Cc1cc(N2CCc3c(c(C)nn3CC34CCC(NC(=O)[C@H]5COCCN5)(CC3)CC4)C2)c2cnn(C)c2n1,pIC50,Toll-like receptor 7,7.89
same,pIC50,Toll-like receptor 8,6.66
same,pIC50,Toll-like receptor 9,5.72
same,log(permeability),[1],-5.3
same,pIC50,[2],< 4.52
same,pIC50,Cytochrome P450 3A4 [3],< 4.30
same,Kobs,Cytochrome P450 3A4 [4],0.018 min⁻¹
same,microsomal CLint,[5],54 µL/min/mg
same,microsomal CLint,[6],382 µL/min/mg
same,microsomal CLint,[7],< 15 µL/min/mg
Cc1cc(N2CCc3c(c(C)nn3CC34CCC(NC(=O)CN5CCC5)(CC3)CC4)C2)c2cnn(C)c2n1,pIC50,Toll-like receptor 7,9.00
same,pIC50,Toll-like receptor 8,7.22
same,pIC50,Toll-like receptor 9,6.55
same,log(permeability),[1],-4.6
same,pIC50,[2],< 4.52
same,pIC50,Cytochrome P450 3A4 [3],4.77
same,Kobs,Cytochrome P450 3A4 [4],0.044 min⁻¹
same,microsomal CLint,[5],90 µL/min/mg
same,microsomal CLint,[7],37 µL/min/mg
Cc1cc(N2CCc3c(c(C)nn3CC34CCC(NC(=O)CN(C)C)(CC3)CC4)C2)c2cnn(C)c2n1,pIC50,Toll-like receptor 7,8.22
same,pIC50,Toll-like receptor 8,7.60
same,pIC50,Toll-like receptor 9,6.14
same,log(permeability),[1],-4.3
same,pIC50,[2],< 4.52
same,pIC50,Cytochrome P450 3A4 [3],< 4.30
same,Kobs,Cytochrome P450 3A4 [4],0.006 min⁻¹
same,microsomal CLint,[5],147 µL/min/mg
same,microsomal CLint,[6],104 µL/min/mg
same,microsomal CLint,[7],33 µL/min/mg
Cc1cc(N2CCc3c(c(C)nn3CC34CCC(N5CCN(C)CC5=O)(CC3)CC4)C2)c2cnn(C)c2n1,pIC50,Toll-like receptor 7,7.72
same,pIC50,Toll-like receptor 9,5.26
same,log(permeability),[1],-4.3
same,pIC50,[2],< 4.52
same,pIC50,Cytochrome P450 3A4 [3],< 4.30
same,microsomal CLint,[5],71 µL/min/mg
same,microsomal CLint,[6],251 µL/min/mg
same,microsomal CLint,[7],50 µL/min/mg
CCN(C)CC(=O)NC12CCC(Cn3nc(C)c4c3CCN(c3cc(C)nc5c3cnn5C)C4)(CC1)CC2,pIC50,Toll-like receptor 7,> 8.30
same,pIC50,Toll-like receptor 8,8.15
same,log(permeability),[1],-4.1
same,pIC50,[2],< 4.52
same,pIC50,Cytochrome P450 3A4 [3],4.55
same,Kobs,Cytochrome P450 3A4 [4],0.013 min⁻¹
same,microsomal CLint,[5],463 µL/min/mg
same,microsomal CLint,[6],> 700 µL/min/mg
same,microsomal CLint,[7],48 µL/min/mg
